PubChem BioAssay (NCI)
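Step 1: Grow cells in 96-well plates. Step 2: Expose to compound for 48 hours at 5 concentrations. Step 3: Interpolate endpoints linearly; if unreached, use highest concentration. TGI denotes the concentration required for complete inhibition of growth.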

How the values were obtained:
Assay in all cases: NCI tumour cell line growth inhibition, 48 h
[1] = tested on: K-562 leukemia
[2] = tested on: NCI-H522 lung
[3] = tested on: MOLT-4 leukemia
[4] = tested on: RXF 393 renal
[5] = tested on: SF-539 CNS
[6] = tested on: HT29 colon
[7] = tested on: HCC-2998 colon
[8] = tested on: SK-MEL-2 melanoma
[9] = tested on: OVCAR-8 ovarian
[10] = tested on: M14 melanoma
[11] = tested on: T-47D breast
[12] = tested on: UACC-257 melanoma
[13] = tested on: IGROV1 ovarian
[14] = tested on: CCRF-CEM leukemia
[15] = tested on: EKVX NSCLC
[16] = tested on: NCI-H23 lung
[17] = tested on: U251 CNS
[18] = tested on: 786-0 renal
[19] = tested on: NCI-H460 lung
[20] = tested on: SF-268 CNS
[21] = tested on: MCF7 breast
[22] = tested on: OVCAR-3 ovarian
[23] = tested on: HOP-62 NSCLC
[24] = tested on: SR leukemia
[25] = tested on: MDA-MB-435
[26] = tested on: A498 renal
[27] = tested on: MALME-3M melanoma
[28] = tested on: NCI/ADR-RES ovarian
[29] = tested on: OVCAR-4 ovarian
[30] = tested on: UACC-62 melanoma
[31] = tested on: A549 NSCLC
[32] = tested on: HS 578T breast
[33] = tested on: DU-145 prostate
[34] = tested on: OVCAR-5 ovarian
[35] = tested on: NCI-H226 lung
[36] = tested on: MDA-MB-231 breast
[37] = tested on: CAKI-1 renal
[38] = tested on: SN12C renal
[39] = tested on: SF-295 CNS
[40] = tested on: COLO 205 colon
[41] = tested on: TK-10 renal
[42] = tested on: HCT-15 colon
[43] = tested on: SK-MEL-5 melanoma
[44] = tested on: HCT-116 colon
[45] = tested on: SK-OV-3 ovarian
[46] = tested on: MDA-N
[47] = tested on: PC-3 prostate
[48] = tested on: SNB-75 CNS
[49] = tested on: KM12 colon
[50] = tested on: ACHN renal
[51] = tested on: LOX IMVI melanoma
[52] = tested on: SW-620 colon
[53] = tested on: HOP-92 NSCLC
[54] = tested on: RPMI-8226 leukemia
[55] = tested on: SK-MEL-28 melanoma
[56] = tested on: SNB-19 CNS
[57] = tested on: UO-31 renal
[58] = tested on: HL-60(TB) leukemia
[59] = tested on: BT-549 breast

Measured: TGI

Cc1cc2nn(C3CCCO3)nc2cc1C (configuration not stated)
not listed: [49] | [50] | [51] | [52] | [53] | [54] | [55] | [56] | [57] | [58] | [59]
> 100 µM: all other assays above

COc1ccc2nc3n(c2c1)C(c1c(F)cccc1Cl)SC3 (configuration not stated)
not listed: [2] | [5] | [6] | [20] | [27] | [32] | [35] | [36]
> 100 µM: all other assays above

Nc1ncnc2c1ncn2C1OC(CO)C2OC21 (configuration not stated)
> 10 µM: [10] | [18] | [19] | [22] | [25] | [27] | [28] | [42] | [46]
not listed: [59]
> 100 µM: all other assays above
